# Reference: a melting point compilation (Tetko et al.)
row,melting point [°C],SMILES
1,82 to 84,Cc1cc(SC#N)cc(C)c1N
2,117 to 119,Cc1cc2sc(N)nc2s1
3,61 to 63,OCCOC1CCNCC1
4,190 to 192,CS(=O)(=O)c1ccc(F)c(C(=O)O)c1
5,248 to 250,Nc1nnc(C(=O)NCc2ccccc2)[nH]1
6,99 to 101,CCOC(=O)C1=C(C)NN=C(C)C1
7,315 to 317,O=C(O)c1ccc2nncn2c1
8,156 to 158,O=C(O)c1ccc(SC2CC2)cc1
9,134 to 136,Nc1ccc(C(=O)Nc2ccccc2)cc1
10,143 to 145,CNC(=O)COc1ccc(CC(=O)O)cc1
11,54 to 56,Clc1ncncc1I
12,92 to 94,O=C(O)CCc1ccc2c(c1)CCO2
13,234 to 236,Nc1nc2nc(-c3ccccc3)cc(C(F)(F)F)c2s1
14,199 to 201,Nc1c(-c2ccccn2)nc2ccccn12
15,77 to 79,CCc1noc(-c2ccc(C)c(N)c2)n1
16,201 to 203,O=C(Nc1ccccc1C(=O)O)c1ccccc1Br
17,279 to 281,Cc1ccc(Cn2c(N)cc(=O)[nH]c2=O)cc1
18,131 to 133,CC(C)(C)OC(=O)NCc1ccc(C(=O)O)o1
19,131 to 133,Cn1cc(N2CCC(N)C2=O)cn1 (stereo unspecified)
20,132 to 134,Cc1nc(S)oc1C
21,115 to 117,OCc1cc2ccc(Br)cc2[nH]1
22,89 to 91,O=[N+]([O-])c1ccc(CCS(=O)(=O)Cl)cc1
23,157 to 159,O=C(O)CSc1nnc(NC2CCCCC2)s1

row,melting point [°C],SMILES
1,118 to 120,NS(=O)(=O)Cc1ccc(CO)cc1
2,53 to 55,COC(=O)c1ccc(S)cc1
3,122 to 124,CCCOc1ccc(C(=O)O)cc1N
4,239 to 241,CN1C(=O)CCC(C(N)=O)C1c1ccc(C(F)(F)F)cc1 (stereo unspecified)
5,70 to 72,CN(C)N=Cc1cnn(C)c1
6,96 to 98,Cc1c(N)cc(C(=O)NC(C)c2ccccc2)cc1F (stereo unspecified)
7,118 to 120,Cc1cc(CC(=O)O)c(C)n1-c1ccc(Cl)cc1
8,149 to 151,N#Cc1ccc(N2CCOC2=O)cc1
9,110 to 112,CC(C)n1[nH]ccc1=NC(=O)Nc1ccccc1
10,84 to 86,CC(N)C(=O)Nc1ccc(Cl)cc1 (stereo unspecified)
11,95 to 97,CCSc1cccc(C(=O)O)c1
12,96 to 98,NCc1cccc(NC(=O)C2CC2)c1
13,296 to 298,Cn1nc(Br)c2c(=O)[nH]cnc21
14,65 to 67,COC(=O)CCNc1ncccc1[N+](=O)[O-]
15,106 to 108,O=C(O)/C=C/c1ccc(OC(F)F)cc1OC(F)F
16,150 to 152,N#Cc1ccsc1NC(=O)CCCl
17,109 to 111,CS(=O)c1ccc(N)cc1F (stereo unspecified)
18,53 to 55,CCOP(=O)(Cc1cc(Cl)ccc1Cl)OCC
19,316 to 318,C1=CNc2cccc(=C3N=c4ccncc4=N3)c2=C1
20,121 to 123,Nc1c(O)cccc1F
21,88 to 90,CC(Cl)C(=O)Nc1ccc(Cl)cn1 (stereo unspecified)
22,299 to 301,O=C(O)c1cc[nH]c(=O)c1
23,130 to 132,N#CC1(NC(=O)CCl)CCCCC1

row,melting point [°C],SMILES
1,69 to 71,COc1ncnc(N(C)C)c1N
2,51 to 53,Cc1ccc(N)c(OCCN(C)C)c1
3,66 to 68,O=C(CCCCl)c1cc(F)ccc1O
4,196 to 198,O=C(Nc1sccc1C(=O)O)c1ccco1
5,152 to 154,CC(C)Oc1ccc(C(N)=S)cc1
6,165 to 167,Nc1c(-c2ccco2)nc2ccccn12
7,140 to 143,COc1ccc(-c2nnc(SCC(=O)O)o2)cc1
8,82 to 84,Cc1cc(C(=O)CCl)c(C)n1-c1ccc(Br)cc1
9,133 to 135,O=C(O)c1nnn(-c2ccccc2F)c1C(F)(F)F
10,159 to 161,Nc1ccc(C(=O)NCc2ccccn2)c(Cl)c1
11,172 to 174,CN(CC(=O)O)S(=O)(=O)c1ccc2ccccc2c1
12,62 to 64,Cc1ccccc1COc1c(C)cc(C=O)cc1C
13,159 to 161,O=C(O)CSc1ccc(Cl)cc1[N+](=O)[O-]
14,69 to 71,O=C(O)CCCc1ccc(Cl)c(Cl)c1
15,114 to 116,CC(=O)N(C)c1cccc(N)c1
16,203 to 205,CC1CNc2ccccc2NC1=O (stereo unspecified)
17,49 to 51,Cc1cc(Br)cc(C)c1S(=O)(=O)Cl
18,63 to 65,c1cn2c(n1)CN(C1CCNCC1)CC2
19,92 to 94,O=c1ccccn1Cc1ccc(Cl)c([N+](=O)[O-])c1
20,284 to 286,NC(=O)c1ccc(N2CCC(C(=O)O)CC2)nc1
21,183 to 185,O=C(O)c1cc(S(=O)(=O)N2CCOCC2)c(Cl)cc1Cl
22,111 to 113,O=S1(=O)CC(O)C(S(=O)(=O)Cl)C1 (stereo unspecified)
23,165 to 167,N#CCc1nc(-c2ccccc2)n[nH]1

row,melting point [°C],SMILES
1,169 to 171,O=C(O)c1ccc(F)c(I)c1
2,196 to 198,Nc1nnc(Cc2ccccc2Cl)o1
3,187 to 189,Nc1ccc(-c2nc3ccccc3s2)cn1
4,229 to 231,CC(C)(C)OC(=O)NCC1CCCCC12NC(=O)NC2=O (stereo unspecified)
5,268 to 270,O=C(O)c1ccsc1C(=O)O
6,87 to 89,CCOC(=O)c1sc2nc(C)nn2c1C
7,48 to 50,Cc1ccc(C(C)O)cc1[N+](=O)[O-] (stereo unspecified)
8,166 to 168,O=C(O)c1c(O)cccc1Cl
9,104 to 106,COC(=O)c1oc2ccccc2c1CBr
10,123 to 127,O=C(O)CCNS(=O)(=O)c1ccc(F)cc1
11,155 to 157,CCC(C)n1c(SCC(=O)O)nnc1-c1ccccc1 (stereo unspecified)
12,192 to 194,O=C(O)C1C2C=CC(C2)C1C(=O)N1CCN(CCO)CC1 (stereo unspecified)
13,93 to 95,O=C1CCSc2cc(F)c(F)cc21
14,219 to 221,Nc1nnc(-c2cccc(Br)c2)[nH]1
15,72 to 74,COC(=O)c1cc([N+](=O)[O-])c(Br)cc1F
16,129 to 131,O=C1CCc2c(F)ccc(Br)c21
17,150 to 152,N#Cc1cccc(-n2cncn2)c1
18,145 to 147,NS(=O)(=O)c1cc([N+](=O)[O-])c(Br)s1
19,156 to 158,O=C1NC(=O)C(c2ccccc2OC(F)(F)F)N1 (stereo unspecified)
20,89 to 91,Fc1cc2ncnc(Cl)c2cc1F
21,106 to 108,Nc1cccc(N2CCCC2=O)c1
22,46 to 48,ClCc1nnc(-c2c(Cl)cccc2Cl)o1
23,118 to 120,CC(C)n1nnnc1-c1ccc(N)cc1F

row,melting point [°C],SMILES
1,73 to 75,Cc1csc(CC(=O)NN)n1
2,283 to 285,NC(Cc1c[nH]c2cc(F)ccc12)C(=O)O (stereo unspecified)
3,101 to 103,Nc1cc(S(=O)(=O)NC2CC2)ccc1F
4,193 to 195,COC(=O)c1ccc2[nH]ncc2c1
5,218 to 220,O=C(O)c1ccc(Cl)cc1N1CCCC1=O
6,234 to 236,COc1ccc(-n2cc(O)c(C(=O)O)n2)cc1
7,113 to 115,O=C(Cn1ccnc1)c1cccc(F)c1
8,186 to 188,O=C(O)c1cc(F)cc(S(=O)(=O)Cl)c1Br
9,138 to 140,O=C(O)c1cn(-c2ccccc2)nn1
10,217 to 219,O=C(O)c1cc(C(=O)O)cc(S(=O)(=O)Cl)c1
11,171 to 173,O=C(O)c1ncoc1-c1ccco1
12,147 to 149,CCOc1oc(-c2ccccc2)nc1C(=O)O
13,199 to 201,O=C(O)c1c(O)cnc2ccccc12
14,170 to 180,O=C(O)CCNS(=O)(=O)c1ccc2ccccc2c1
15,109 to 111,CNS(=O)(=O)c1ccc(C(C)=O)cc1
16,196 to 198,N#Cc1ccc(Cc2cnc(N)s2)c(C(F)(F)F)c1
17,97 to 98,CSc1ccc(CC(=O)O)cc1
18,87 to 89,N#CCc1coc(-c2ccccc2)n1
19,153 to 155,O=C(O)CNS(=O)(=O)Cc1ccccc1
20,202 to 204,CCOc1ccc(/C=C/C(=O)O)cc1OC
21,202 to 204,O=C(O)c1nn(-c2ccc(F)cc2)c2c1CCC2
22,92 to 94,O=c1c(Cl)c(Cl)cnn1-c1cccc(C(F)(F)F)c1
23,141 to 143,Nc1ccc(C(=O)NC2CCCC2)cc1

row,melting point [°C],SMILES
1,189 to 191,COc1ccc(C(=O)O)c(Br)c1
2,88 to 90,COC(=O)C(=O)CC(=O)c1c(F)cccc1F
3,179 to 181,CC(C)(C)CC(=O)Nc1ccc(CC(=O)O)cc1
4,115 to 117,CCOC(=O)c1c(C)[nH]c(C(C)=O)c1C
5,84 to 86,CC(C)(N)CN1CCN(c2ccccc2)CC1
6,209 to 211,Cn1cc(C(=O)O)c(Cl)n1
7,88 to 90,CCc1ccccc1NC(=O)CN1CCNCC1
8,278 to 280,O=C(O)CC1SC(=NN=Cc2ccc(Br)s2)NC1=O (stereo unspecified)
9,93 to 95,CC(=O)c1cccc(OC(C)C(=O)O)c1 (stereo unspecified)
10,156 to 158,O=C(O)CS(=O)(=O)Cc1ccc(Br)cc1
11,145 to 147,Nc1ccc(N2CCCCC2)c(S(=O)(=O)Nc2ccc(Cl)cc2)c1
12,84 to 86,CC(C)c1ccccc1OCCC(=O)O
13,100 to 102,Cn1c(C2CC2)nc2cnccc21
14,109 to 111,Cc1nncn1-c1cccc(N)c1
15,55 to 57,O=C(O)CCNC(=O)c1cnccn1
16,57 to 59,Cc1cc(CCC(=O)O)c(C)s1
17,81 to 83,CCOC(=O)Cn1cc(Br)ccc1=O
18,35 to 37,COC(=O)c1ccc(F)c(C)c1N
19,149 to 151,SC1=Nc2ccccc2CS1
20,195 to 197,O=C(O)c1cscn1
21,88 to 90,Cc1cc(C)cc(OCCC(=O)O)c1
22,158 to 160,Nc1ccc(Cl)c(S(=O)(=O)Nc2cccc(Cl)c2)c1
23,256 to 258,Nc1cnc(Br)cc1C(=O)O

row,SMILES,melting point [°C]
1,CC(C)(C)c1ccc(C2(N)CCCC2)cc1,120 to 122
2,O=C(CCl)NNC(=O)C1CCC1,199 to 201
3,COc1ccc(Cl)cc1CBr,77 to 79
4,Cc1ccc(C(=O)CCl)s1,45 to 47
5,c1n[nH]cc1C1CCNCC1,149 to 151
6,ClCc1csc(-c2ccco2)n1,76 to 78
7,O=c1[nH]nc(N2CCNCC2)c(=O)[nH]1,150 to 152
8,O=C1CC(c2ccccc2)CN1 (stereo unspecified),70 to 72
